{"source": "patent US11559525B2", "about": "“Therapeutic drug for dyskinesia” (Sumitomo Pharma Co., Ltd., priority 2019, dated 2023)", "key": {"[1]": {"assay": "Plasma tandospirone concentration measured after observation and evaluation of behavior in PD-LID rats", "format": "in vivo, rat", "settings": "continuous subcutaneous infusion 60 mg/mL citrate", "description": "50 μL of rat plasma sample was fractionated into a polypropylene microtube. 50 μL of methanol (50 μL of standard solution for calibration curve sample) and 200 μL of internal standard solution (Bezafibrate methanol solution: 200 nmol/L, 200 μL of methanol for blank sample) are added and stirred for about 10 seconds with a mixer. This is centrifuged (4° C., 4500 rpm, 10 min), and then the supernatant is subjected to vacuum filtration using a filter (FastRemover MF 0.2 μm). 70 μL of aqueous 10 mmol/L ammonium acetate solution is added to 70 μL of the resulting filtrate and stirred for about 10 seconds with a mixer to prepare a measurement sample.\nWhen evaluating a tape agent, the hair on the abdominal region of rats was shaved before the evaluation date. The tape agent of formulation 2 was applied to the abdominal regions of rats on the evaluation date at 60 cm^2/kg (37 mg/kg). After 4 hours from application, a levodopa containing solution was intraperitoneally administered to observe and evaluate the behavior. Individuals with 50% or more of the tape agent coming off during the test were excluded from analysis.\nAfter 4 hours from application, a levodopa containing solution was intraperitoneally administered to observe and evaluate the behavior. Individuals with 50% or more of the tape agent coming off during the test were excluded from analysis.\nAfter 4 hours, a levodopa containing solution was administered to observe and evaluate the behavior.\nAfter 4 hours, a levodopa containing solution was administered to observe and evaluate the behavior (day 0 of implanting the pump). Repeat administration of once daily levodopa containing solution was continued thereafter. The behavior was also observed and evaluated on day 13 of implanting the pump."}, "[2]": {"test_system": "PD-LID rat model (6-OHDA-lesioned rats)", "assay": "Long-term dyskinesia improving effect of continuous subcutaneous infusion in PD-LID rat model", "format": "in vivo", "description": "Individuals with a total AIMs score of less than 15 were excluded from the test as not manifesting a dyskinesia-like symptom. The behavior was observed and evaluated before the drug evaluation date. The rats were assigned to each dosing group by using the 3 hour AIMs score, Locomotive behavior score, and rat body weight as indicators, which were used for evaluation of drugs. […] The prepared solution was used after injection into an ALZET® Osmotic Pump MODEL 2ML2 (4.53 μL/hour; DURECT) for releasing a drug solution at a stable rate for 2 weeks. […] After 4 hours, a levodopa containing solution was administered to observe and evaluate the behavior (day 0 of implanting the pump). Repeat administration of once daily levodopa containing solution was continued thereafter. The behavior was also observed and evaluated on day 13 of implanting the pump. […] The results in the drawings are indicated in terms of mean value±standard error of the total AIMs scores in 3 hours. The test results were statistically analyzed using Wilcoxon rank sum test using the total AIMs score as a parameter. ** indicates p<0.01, meaning that there is a significant difference compared to the solvent administration group."}, "6-OHDA-lesioned rats": {"test_system": "6-OHDA-lesioned rats", "assay": "Prevention/delay of manifestation of dyskinesia by continuous subcutaneous infusion in 6-OHDA-lesioned rats", "format": "in vivo, rat", "description": "The prepared solution was used after injection into an ALZET® Osmotic Pump MODEL 2ML2 (4.53 μL/hour; DURECT).\n6-OHDA-lesioned rats were assigned to each administration group using the number of apomorphine hydrochloride hemihydrate induced rotations and body weight as indicators. […] The osmotic pump implanted subcutaneously was retrieved after the observation and evaluation of behavior on day 15. The behavior was also observed and evaluated on the following day (day 16 of repeated administration of levodopa).\nThe test results were statistically analyzed by comparison with the solvent administration group using Steel test with the total AIMs score on day 16 of repeated levodopa administration as the parameter. * indicates p<0.05 and ** indicates p<0.01, meaning that there is a significant difference compared to the solvent administration group."}, "[3]": {"test_system": "PD-LID rat model (6-OHDA-lesioned rats)", "assay": "Oral administration of tandospirone citrate on dyskinesia-like symptoms in PD-LID rat model", "format": "in vivo", "settings": "oral 10, 30, or 100 mg/kg as citrate concentration, levodopa 5 minutes later", "description": "The behavior was observed and evaluated using the same method as Example 2. […] After 5 minutes, a levodopa containing solution was intraperitoneally administered, and the behavior was observed and evaluated. The results in the drawings are indicated in terms of mean value±standard error. The test results were statistically analyzed by comparison with the solvent administration group by Steel test using the total AIMs score in 3 hours and total AIMs score in 100 to 180 minutes as parameters. * indicates p<0.05, meaning that there is a significant difference. The dosage was described as a numerical value converted in terms of tandospirone free form."}, "[4]": {"test_system": "PD-LID rat model (6-OHDA-lesioned rats)", "assay": "ON-time prolongation action (ON score, ON time without dyskinesia) in PD-LID rat model", "format": "in vivo", "description": "To make a PD-LID rat model, a mixture of levodopa methyl ester hydrochloride (6 mg/kg; Sigma-Aldrich) dissolved in saline and benserazide hydrochloride (15 mg/kg; Sigma-Aldrich) (hereinafter, also referred to as “levodopa containing solution”) was intraperitoneally administered once daily to 6-OHDA-lesioned rats. The levodopa containing solution was repeatedly administered for 3 weeks or longer to observe and evaluate the behavior. […] The sum of the scores for Limb AIMs, Axial AIMs, and Orolingual AIMs in 3 hours was used as the total dyskinesia-like symptom (AIMs) score. Individuals with a total AIMs score of less than 10 were excluded from the test as not manifesting a dyskinesia-like symptom. The behavior was observed and evaluated before the drug evaluation date. The rats were assigned to each dosing group by using the 3 hour total dyskinesia-like symptom (AIMs) score, Locomotive behavior score, and rat body weight as indicators, which were used for evaluation of drugs. For an indicator of dyskinesia behavior, the sum of the Limb AIMs, Axial AIMs, and Orolingual AIMs at each evaluation point was used as the AIMs score. For the rotational behavior (ON score), Locomotive behavior at each evaluation point was used as an indicator. The total ON score in 3 hours was used as the total ON score. For ON time without dyskinesia, the period during which the AIMs score is 0 and Locomotive behavior is 1 or greater at each evaluation point was added. Duration of action of levodopa without a dyskinesia symptom (ON time without dyskinesia) refers to the aggregate time with no dyskinesia during the antiparkinsonian action effective time, i.e., “ON-time”, and defined as the time during which the dyskinesia symptom (AIMs) score is 0 and the rotational behavior (Locomotive behavior) score is 1 or greater at each evaluation point after levodopa administration. […] After 5 minutes, a levodopa containing solution was intraperitoneally administered, and the behavior was observed and evaluated. The results in the drawings are indicated in terms of mean value±standard error. The test results were statistically analyzed by comparison with the solvent administration group using the Steel test with the total ON score in 3 hours or ON time without dyskinesia as an indicator. ** indicates p<0.01, meaning that there is a significant difference. For evaluation of a tape agent, the abdominal regions of the rats were shaved prior to the evaluation date. […] After 4 hours from application, a levodopa containing solution was intraperitoneally administered to observe and evaluate the behavior. The results in the drawings are indicated in terms of mean value±standard error. Individuals with 50% or more of the tape agent coming off during the test were excluded from analysis. The test results were statistically analyzed by comparison with the placebo tape administration group using Wilcoxon rank sum test with the total ON score in 3 hours or ON time without dyskinesia as an indicator. * indicates p<0.05 and ** indicates […], meaning that there is a significant difference compared to the solvent oral administration group or the placebo tape administration group."}, "[5]": {"test_system": "PD-LID rat model (6-OHDA-lesioned rats)", "assay": "Oral administration of tandospirone citrate on dyskinesia-like symptoms in PD-LID rat model", "format": "in vivo", "settings": "oral 30 or 100 mg/kg"}, "[6]": {"test_system": "PD-LID rat model (6-OHDA-lesioned rats)", "assay": "Tandospirone metabolite 1-PP on dyskinesia-like symptoms in PD-LID rat model", "format": "in vivo", "settings": "subcutaneous 10 or 30 mg/kg", "description": "The behavior was observed and evaluated using the same method in Example 2. 1-PP dihydrochloride (Tokyo Chemical Industry) was dissolved in saline and subcutaneously administered to rats. After 5 minutes, a levodopa containing solution was intraperitoneally administered to observe and evaluate the behavior. The results in the drawings are indicated in terms of mean value±standard error. The test results were statistically analyzed by comparison with the solvent administration group by Steel test by using the total AIMs score in 3 hours and total AIMs score in 100 to 180 minutes as parameters."}, "[7]": {"settings": "oral 30 mg/kg and 100 mg/kg as citrate"}}, "note": "Structures can show the parent of a compound that is named as a salt.", "data": [{"compound": "tandospirone citrate", "values": [{"measurement": "mean value of plasma tandospirone concentrations (converted in terms of free form)", "setting": "[1]; day 0 of implanting the pump", "result": 281, "unit": "ng/mL"}, {"measurement": "mean value of plasma tandospirone concentrations (converted in terms of free form)", "setting": "[1]; day 13 of implanting the pump", "result": 143, "unit": "ng/mL"}, {"measurement": "dyskinesia-like symptoms (total AIMs score in 180 minutes) vs solvent", "setting": "[2]; continuous subcutaneous infusion 60 mg/mL (mean 0.78 mg/kg/hour as citrate), day 0 of implanting the pump", "result": "Significant improvement"}, {"measurement": "dyskinesia-like symptoms (total AIMs score in 180 minutes) vs solvent", "setting": "[2]; continuous subcutaneous infusion 60 mg/mL citrate, day 13 of implanting the pump", "result": "significant improvement"}, {"measurement": "increase in total AIMs score associated with repeated administration of levodopa vs solvent", "setting": "6-OHDA-lesioned rats; continuous subcutaneous infusion 30 mg/mL (mean 0.41 mg/kg/hour) or 60 mg/mL (mean 0.83 mg/kg/hour), days 3-15", "result": "suppressed the increase in total AIMs score"}, {"measurement": "total AIMs score on the day after completion of administration (day 16) vs solvent", "setting": "6-OHDA-lesioned rats; continuous subcutaneous infusion 30 or 60 mg/mL, pump retrieved day 15", "result": "significantly lower"}, {"measurement": "total AIMs score vs solvent", "setting": "[3]", "result": "significant change in the total AIMs score was not observed"}, {"measurement": "ON time without dyskinesia for 180 minutes vs solvent", "setting": "[4]; [7]", "result": "increase in ON time without dyskinesia"}, {"measurement": "total ON score after 180 minutes of levodopa administration vs solvent", "setting": "[4]; [7]", "result": "increase in the total ON score"}, {"measurement": "ON-time without dyskinesia for 180 minutes (Locomotive behavior ≥1, and AIMs score=0)", "setting": "[4]; oral 100 mg/kg as citrate", "result": "significant prolongation"}, {"measurement": "total ON score", "setting": "[4]; oral 100 mg/kg as citrate", "result": "increase in the total ON score"}, {"measurement": "clear dyskinesia-like symptom (mean AIMs score of 2 or greater) at 120 to 140 minutes after levodopa administration", "setting": "[5]", "result": "clear dyskinesia-like symptom (mean AIMs score of 2 or greater) was observed"}, {"measurement": "total AIMs score in 100 to 180 minutes vs solvent", "setting": "[5]", "result": "significant increase"}]}, {"compound": "c1cnc(N2CCNCC2)nc1", "note": "[1-PP dihydrochloride, 1-(2-Pyrimidyl) piperazine]", "values": [{"measurement": "clear dyskinesia-like symptom (mean AIMs score of 2 or greater) at 120 to 140 minutes after levodopa", "setting": "[6]", "result": "clear dyskinesia-like symptom (mean AIMs score of 2 or greater) was observed"}, {"measurement": "total AIMs score in 100 to 180 minutes vs solvent", "setting": "[6]", "result": "increasing trend in the total AIMs score, albeit not significant"}, {"measurement": "total AIMs score vs solvent", "setting": "[6]; levodopa 5 minutes later", "result": "significant change in the total AIMs score was not found"}]}]}
